Data set [1] concerns gastrointestinal transit. The data set can be described thus: Murine gastrointestinal transit (GIT) assay, charcoal front. In kind it is in vivo, mice. The protocol: In order to determine whether the peptides increase the rate of gastrointestinal transit, the peptides and controls were tested using a murine gastrointestinal transit (GIT) assay (Moon et al. Infection and Immunity 25:127, 1979). In this assay, charcoal, which can be readily visualized in the gastrointestinal tract is administered to mice after the administration of a test compound. The distance traveled by the charcoal is measured and expressed as a percentage of the total length of the […].
Mice were fasted with free access to water for 12 to 16 hours before the treatment with peptide or control buffer. The peptides were orally administered at 1 μg/kg-1 mg/kg of peptide in buffer (20 mM Tris pH 7.5) 7 minutes before being given an oral dose of 5% Activated Carbon (Aldrich 242276-250G). Control mice were administered buffer only before being given a dose of Activated Carbon. After 15 minutes, the mice were sacrificed and their intestines from the stomach to the cecum were dissected. The total length of the intestine as well as the distance traveled from the stomach to the charcoal front was measured for each animal and the results are expressed as the percent of the total length of the intestine traveled by the charcoal front. All results are reported as the average of 10 mice±standard deviation. A comparison of the distance traveled by the charcoal between the mice treated with peptide versus the mice treated with vehicle alone was performed using a Student's t test and a statistically significant difference was considered for P<0.05. P-values are calculated using a two-sided T-Test assuming unequal variances.
The identical experiment was performed to determine if SEQ ID NO:3 is effective in a chronic dosing treatment regimen. Briefly, 8 week old CD1 female mice are dosed orally once a day for 5 days with either SEQ ID NO:3 (0.06 mg/kg or 0.25 mg/kg in 20 mM Tris pH 7.5) or vehicle alone (20 mM Tris pH 7.5). On the 5th day, a GIT assay is performed identical to that above except 200 μl of a 10% charcoal solution is administered. […] The results are shown side by side with acute dosing (1 day).

Data set [2] in a line: Bioavailability study in mice, serum detection by LCMS. Particulars: FIG. 10b. The format is in vivo. The protocol: A similar bioavailability study was performed in which LCMS rather than ELISA was used to detect SEQ ID NO:3. Initially, serum samples were extracted from the whole blood of exposed and control mice, then injected directly ([…]) onto an in-line solid phase extraction (SPE) column (Waters Oasis HLB […] column, 2.0×15 mm direct connect) without further processing. The sample on the SPE column was washed with a 5% methanol, 95% dH2O solution (2.1 mL/min, 1.0 minute), then loaded onto an analytical column using a valve switch that places the SPE column in an inverted flow path onto the analytical column (Waters Xterra MS C8 5 mm IS column, 2.1×20 mm). The sample was eluted from the analytical column with a reverse phase gradient (Mobile Phase A: 10 mM ammonium hydroxide in dH2O, Mobile Phase B: 10 mM ammonium hydroxide in 80% acetonitrile and 20% methanol; 20% B for the first 3 minutes then ramping to 95% B over 4 min. and holding for 2 min., all at a flow rate of 0.4 mL/min.). At 9.1 minutes, the gradient returns to the initial conditions of 20% B for 1 min. SEQ ID NO:3 eluted from the analytical column at 1.45 minutes, and was detected by triple-quadrapole mass spectrometry (MRM, 764 (+2 charge state)>182 (+1 charge state) Da; cone voltage=30V; collision=20 eV; parent resolution=2 Da at base peak; daughter resolution=2 Da at base peak). […]

Data set [3] in a line: Absorbability/bioavailability study in mice, serum detection by competitive ELISA. In kind it is in vivo, CD1 mice. Particulars: FIG. 10a. The protocol: To study the pharmacokinetics of SEQ ID NO:3, absorbability studies in mice were performed by administering SEQ ID NO:3 intravaneously via tail vein injection or orally by gavage to 8-week-old CD1 mice. Serum was collected from the animals at various time points and tested for the presence of SEQ ID NO:3 using a competitive enzyme-linked immunoabsorbent assay (Oxoid, ST EIA kit, Cat#TD0700). The assay utilized monoclonal antibodies against ST peptide (antibodies are provided in the Oxoid kit) and synthetically manufactured SEQ ID NO:3.

The mark [4] stands for this setting: CD1, mouse, serum, oral versus IV.

Positions of bridges follow the written chain, without caps; N, C: chain ends. Residues, ends and D or L forms follow the SMILES beside them.

Turning to `C[C@@H]1NC(=O)[C@@H]2CCCN2C(=O)[C@H](CC(N)=O)NC(=O)[C@@H]2CSSC[C@H](N)C(=O)N[C@H]3CSSC[C@H](NC1=O)C(=O)N[C@@H]([C@@H](C)O)C(=O)NCC(=O)N[C@H](C(=O)N[C@@H](Cc1ccc(O)cc1)C(=O)O)CSSC[C@H](NC(=O)[C@H](Cc1ccc(O)cc1)NC(=O)[C@H](CCC(=O)O)NC3=O)C(=O)N2` [SEQ ID NO:3, Cys Cys Glu Tyr Cys Cys Asn Pro Ala Cys Thr Gly Cys Tyr] (H-CCEYCCNPACTGCY-OH; disulfide 1-6, 2-10, 5-13; N-terminus and C-terminus assumed), the gastrointestinal transit rate entry in data set [1] (acute, oral, mice, SEQ ID NO:4 and Zelnorm 0.1 mg/kg, FIG. 3a/3b) is listed as “increase gastrointestinal transit rate”. Besides, the “intestinal transit rate versus Tris buffer or equivalent dose of Zelnorm” value in data set [1] (acute, oral, mice, chemically synthesized peptides, FIG. 4b) is given as “increase intestinal transit rates more than either Tris buffer alone or an equivalent dose of Zelnorm®”. Besides, in data set [1] (oral once a day for 5 days, CD1 female mice, FIG. 4c), the “effect in mouse gastrointestinal motility assay upon chronic dosing” value is recorded as “effective”. For the same molecule, the bioavailability was below 0.11% in data set [2] (setting [4]) and below 2.2% in data set [3] (setting [4]). Also, the systemic absorption entry in data set [2] (oral) and in data set [3] (oral) was “minimally systemically absorbed” throughout.

These data come from patent US7772188B2, “Methods and compositions for the treatment of gastrointestinal disorders” (priority 2003, dated 2010).
